Measurements published in ChEMBL document CHEMBL3124876, “A perylene derivative regulates HIF-1α and Stat3 signaling pathways” (Bioorg Med Chem, 2014).
Calls of active or inactive are those of the source.

Columns and labels:
[1] = Antitumor activity against human PANC1 cells xenografted in Balb nu/nu mouse assessed as mean tumor volume at 2 mg/kg, ip administered every other day for 10 days measured after 19 days (reference value: 754 mm'3); assay type: functional, PANC-1; conditions: route intraperitoneal
[2] = molecular target: Hypoxia-inducible factor 1-alpha (Homo sapiens) (UniProt Q16665); assay: Inhibition of HIF-1 alpha in human MDA-MB-468 cells assessed as proteasomal degradation at 4 to 7 uM after 18 hrs by immunoblotting analysis in hypoxia condition; assay type: cell-based
[3] = test system: MDA-MB-231; assay: Antitumor activity against human MDA-MB-231 cells xenografted in Balb nu/nu mouse assessed as reduction in tumor growth at 5 mg/kg, po administered every other day for 10 days; assay type: functional, organism-based; set-up: dose 5 mg/kg
[4] = molecular target: Hypoxia-inducible factor 1-alpha (Homo sapiens) (UniProt Q16665); assay: Inhibition of HIF-1 alpha in human PC3 cells after 18 hrs by Western blotting analysis in hypoxia condition; assay type: cell-based; conditions: PC-3
[5] = Reduction of HIF-1 alpha mRNA expression in human PANC1 cells at 5 to 10 uM by qRT-PCR analysis; assay type: functional, cell-based; conditions: PANC-1
[6] = Antitumor activity against human PANC1 cells xenografted in Balb nu/nu mouse assessed as mean tumor weight at 2 mg/kg, ip administered every other day for 10 days measured after 19 days (reference value: 0.5 +/- 0.05 g); assay type: functional, PANC-1; conditions: route intraperitoneal
[7] = test system: MDA-MB-231; assay: Antitumor activity against human MDA-MB-231 cells xenografted in Balb nu/nu mouse assessed as reduction in tumor growth at 2 mg/kg, ip administered every other day for 10 days; assay type: functional, organism-based; set-up: dose 2 mg/kg
[8] = test system: MDA-MB-231; assay: Induction of apoptosis in human MDA-MB-231 cells assessed as reduction in cell viability at 1 to 10 uM by MTT assay; assay type: functional, cell-based
[9] = species on record: Homo sapiens; assay: Inhibition of telomerase (unknown origin)
[10] = test system: MDA-MB-468; assay: Induction of apoptosis in human MDA-MB-468 cells assessed as reduction in cell viability at 1 to 10 uM by MTT assay; assay type: functional, cell-based
[11] = molecular target: Signal transducer and activator of transcription 3 (Homo sapiens) (UniProt P40763); conditions: PANC-1, 1 to 20 uM
Description: Inhibition of Stat3 phosphorylation in human PANC1 cells assessed as inhibition of Bcl2 expression at 1 to 20 uM by Western blotting analysis in normoxia condition

[12] = molecular target: Tyrosine-protein kinase JAK2 (Homo sapiens) (UniProt O60674); assay: Inhibition of JAK2 (unknown origin) assessed as total JAK2 level at 10 uM after 6 hrs by cell-based Western blotting analysis
[13] = test system: MDA-MB-468; assay: Inhibition of HIF-1 in human MDA-MB-468 cells assessed as reduction of GLUT1 mRNA expression at 5 to 10 uM by RT-PCR analysis in hypoxia condition; assay type: cell-based
[14] = molecular target: Endothelial PAS domain-containing protein 1 (Homo sapiens) (UniProt Q99814); assay: Inhibition of HIF-2 alpha in human OVCAR3 cells at 1 to 20 uM by Western blotting analysis in hypoxia condition; assay type: cell-based; conditions: OVCAR-3
[15] = test system: MCF7; assay: Induction of apoptosis in human MCF7 cells assessed as reduction in cell viability at 8 uM after 12 to 48 hrs by MTT assay; assay type: functional, cell-based
[16] = molecular target: Signal transducer and activator of transcription 3 (Homo sapiens) (UniProt P40763); conditions: PANC-1, 0.5 to 20 uM
Description: Inhibition of Stat3 phosphorylation in human PANC1 cells assessed as inhibition of Bcl2 expression at 0.5 to 20 uM by Western blotting analysis in hypoxia condition

[17] = test system: MDA-MB-468; assay: Reduction of total Stat3 level in human MDA-MB-468 cells at 1 to 20 uM by Western blotting analysis; assay type: functional, cell-based
[18] = molecular target: RAC-alpha serine/threonine-protein kinase (Homo sapiens) (UniProt P31749); assay: Inhibition of AKT phosphorylation in human PANC1 cells at 1 to 20 uM by Western blotting analysis; assay type: cell-based; conditions: PANC-1
[19] = molecular target: Hypoxia-inducible factor 1-alpha (Homo sapiens) (UniProt Q16665); assay: Inhibition of HIF-1 alpha in human MDA-MB-468 cells assessed as proteasomal degradation at 4 to 7 uM after 18 hrs by immunoblotting analysis in hypoxia condition in presence of MG132; assay type: cell-based
[20] = molecular target: Hypoxia-inducible factor 1-alpha (Homo sapiens) (UniProt Q16665); assay: Inhibition of HIF-1 alpha in human OVCAR3 cells assessed as inhibition of Bcl2 expression at 1 to 20 uM by Western blotting analysis in normoxia condition; assay type: cell-based; conditions: OVCAR-3
[21] = molecular target: Endothelial PAS domain-containing protein 1 (Homo sapiens) (UniProt Q99814); assay: Inhibition of HIF-2 alpha in human PC3 cells after 18 hrs by Western blotting analysis in hypoxia condition; assay type: cell-based; conditions: PC-3
[22] = test system: MDA-MB-468; assay: Inhibition of HIF-1 in human MDA-MB-468 cells assessed as reduction of VEGF mRNA expression at 5 to 10 uM by RT-PCR analysis in hypoxia condition; assay type: cell-based
[23] = test system: MDA-MB-231; assay: Reduction of total Stat3 level in human MDA-MB-231 cells at 0.05 to 20 uM by Western blotting analysis; assay type: functional, cell-based
[24] = molecular target: Hypoxia-inducible factor 1-alpha (Homo sapiens) (UniProt Q16665); assay: Inhibition of GST-tagged HIF-1 alpha (531 to 826) (unknown origin) expressed in Escherichia coli BL21(DE3) assessed as inhibition of GST-tagged HIF-1 alpha/p300 interaction at 5 ug after overnight incubation by pull down assay in hypoxia condition
[25] = molecular target: T1, Signal transducer and activator of transcription 5A (Homo sapiens) (UniProt P42229); assay: Inhibition of Stat5 phosphorylation in human PANC1 cells at 0.5 to 20 uM by Western blotting analysis; assay type: cell-based; conditions: PANC-1
T1 sequence (whole entry): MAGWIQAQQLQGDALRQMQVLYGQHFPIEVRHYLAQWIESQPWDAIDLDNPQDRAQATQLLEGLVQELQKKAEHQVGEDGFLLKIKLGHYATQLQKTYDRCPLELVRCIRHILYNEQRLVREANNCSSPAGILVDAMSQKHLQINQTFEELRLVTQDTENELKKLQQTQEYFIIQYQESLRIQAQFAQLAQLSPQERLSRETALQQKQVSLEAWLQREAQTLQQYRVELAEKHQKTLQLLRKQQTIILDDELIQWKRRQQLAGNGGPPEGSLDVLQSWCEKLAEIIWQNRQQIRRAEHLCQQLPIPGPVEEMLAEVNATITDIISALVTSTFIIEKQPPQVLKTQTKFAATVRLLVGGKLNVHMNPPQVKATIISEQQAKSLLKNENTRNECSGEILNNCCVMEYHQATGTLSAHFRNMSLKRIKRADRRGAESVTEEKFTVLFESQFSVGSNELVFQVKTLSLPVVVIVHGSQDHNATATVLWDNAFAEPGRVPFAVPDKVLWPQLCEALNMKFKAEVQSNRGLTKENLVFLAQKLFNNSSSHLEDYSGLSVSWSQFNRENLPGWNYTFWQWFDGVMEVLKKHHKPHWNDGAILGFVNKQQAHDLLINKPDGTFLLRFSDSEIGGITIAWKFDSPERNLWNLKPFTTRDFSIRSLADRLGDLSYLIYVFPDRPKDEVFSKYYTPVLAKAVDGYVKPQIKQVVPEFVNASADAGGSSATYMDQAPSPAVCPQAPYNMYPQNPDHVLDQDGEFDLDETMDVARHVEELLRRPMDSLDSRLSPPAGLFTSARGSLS

[26] = molecular target: Signal transducer and activator of transcription 3 (Homo sapiens) (UniProt P40763); assay: Inhibition of Stat3 phosphorylation in human MDA-MB-231 cells assessed as inhibition of c-Myc expression at 1 to 20 uM by Western blotting analysis; assay type: cell-based
[27] = test system: PANC-1; assay: Inhibition of ERK phosphorylation in human PANC1 cells at 1 to 20 uM by Western blotting analysis; assay type: cell-based

Sequence of Hypoxia-inducible factor 1-alpha (Homo sapiens) (Q16665 whole entry, looked up, the tested form may be a part): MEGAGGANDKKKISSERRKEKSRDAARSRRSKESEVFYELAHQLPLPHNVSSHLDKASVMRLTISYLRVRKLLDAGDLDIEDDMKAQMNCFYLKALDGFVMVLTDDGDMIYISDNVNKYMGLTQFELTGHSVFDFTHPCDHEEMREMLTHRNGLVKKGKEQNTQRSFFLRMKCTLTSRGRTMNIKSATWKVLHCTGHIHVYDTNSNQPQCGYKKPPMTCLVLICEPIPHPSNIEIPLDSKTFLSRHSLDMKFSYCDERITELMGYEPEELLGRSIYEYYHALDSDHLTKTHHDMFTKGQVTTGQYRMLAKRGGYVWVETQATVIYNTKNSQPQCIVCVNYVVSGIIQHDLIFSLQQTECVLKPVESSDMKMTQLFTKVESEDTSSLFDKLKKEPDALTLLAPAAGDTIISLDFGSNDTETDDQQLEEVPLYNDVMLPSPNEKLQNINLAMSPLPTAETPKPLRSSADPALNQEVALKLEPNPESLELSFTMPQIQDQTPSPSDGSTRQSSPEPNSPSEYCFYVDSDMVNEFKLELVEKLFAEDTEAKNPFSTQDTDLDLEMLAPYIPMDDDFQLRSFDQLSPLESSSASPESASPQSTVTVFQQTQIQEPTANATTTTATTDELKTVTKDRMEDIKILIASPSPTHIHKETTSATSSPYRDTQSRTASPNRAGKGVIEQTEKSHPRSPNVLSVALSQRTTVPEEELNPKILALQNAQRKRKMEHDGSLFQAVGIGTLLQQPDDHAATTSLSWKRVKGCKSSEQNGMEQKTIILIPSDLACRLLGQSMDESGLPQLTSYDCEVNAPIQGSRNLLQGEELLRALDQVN
Sequence of Signal transducer and activator of transcription 3 (Homo sapiens) (P40763 whole entry): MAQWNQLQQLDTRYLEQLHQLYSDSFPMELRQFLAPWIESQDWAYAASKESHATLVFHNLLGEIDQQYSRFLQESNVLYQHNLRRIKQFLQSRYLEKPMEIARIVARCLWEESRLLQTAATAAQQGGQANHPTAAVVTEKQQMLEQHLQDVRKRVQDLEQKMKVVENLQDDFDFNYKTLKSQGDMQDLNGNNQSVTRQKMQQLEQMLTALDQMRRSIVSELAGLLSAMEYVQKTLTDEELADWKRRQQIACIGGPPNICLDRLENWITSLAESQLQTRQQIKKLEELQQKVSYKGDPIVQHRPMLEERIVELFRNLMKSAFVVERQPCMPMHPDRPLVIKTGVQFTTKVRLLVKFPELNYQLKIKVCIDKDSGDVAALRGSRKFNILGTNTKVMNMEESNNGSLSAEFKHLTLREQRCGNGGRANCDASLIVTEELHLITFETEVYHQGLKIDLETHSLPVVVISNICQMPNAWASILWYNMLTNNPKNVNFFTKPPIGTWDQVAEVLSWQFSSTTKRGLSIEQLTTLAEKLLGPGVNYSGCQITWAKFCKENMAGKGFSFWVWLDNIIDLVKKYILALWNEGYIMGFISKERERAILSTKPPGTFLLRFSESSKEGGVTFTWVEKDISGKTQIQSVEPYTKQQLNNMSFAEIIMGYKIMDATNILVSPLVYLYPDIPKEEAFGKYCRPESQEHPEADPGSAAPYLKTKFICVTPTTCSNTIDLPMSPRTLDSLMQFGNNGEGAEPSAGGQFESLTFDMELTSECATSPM
Sequence of Endothelial PAS domain-containing protein 1 (Homo sapiens) (Q99814 whole entry, the tested form may be a part): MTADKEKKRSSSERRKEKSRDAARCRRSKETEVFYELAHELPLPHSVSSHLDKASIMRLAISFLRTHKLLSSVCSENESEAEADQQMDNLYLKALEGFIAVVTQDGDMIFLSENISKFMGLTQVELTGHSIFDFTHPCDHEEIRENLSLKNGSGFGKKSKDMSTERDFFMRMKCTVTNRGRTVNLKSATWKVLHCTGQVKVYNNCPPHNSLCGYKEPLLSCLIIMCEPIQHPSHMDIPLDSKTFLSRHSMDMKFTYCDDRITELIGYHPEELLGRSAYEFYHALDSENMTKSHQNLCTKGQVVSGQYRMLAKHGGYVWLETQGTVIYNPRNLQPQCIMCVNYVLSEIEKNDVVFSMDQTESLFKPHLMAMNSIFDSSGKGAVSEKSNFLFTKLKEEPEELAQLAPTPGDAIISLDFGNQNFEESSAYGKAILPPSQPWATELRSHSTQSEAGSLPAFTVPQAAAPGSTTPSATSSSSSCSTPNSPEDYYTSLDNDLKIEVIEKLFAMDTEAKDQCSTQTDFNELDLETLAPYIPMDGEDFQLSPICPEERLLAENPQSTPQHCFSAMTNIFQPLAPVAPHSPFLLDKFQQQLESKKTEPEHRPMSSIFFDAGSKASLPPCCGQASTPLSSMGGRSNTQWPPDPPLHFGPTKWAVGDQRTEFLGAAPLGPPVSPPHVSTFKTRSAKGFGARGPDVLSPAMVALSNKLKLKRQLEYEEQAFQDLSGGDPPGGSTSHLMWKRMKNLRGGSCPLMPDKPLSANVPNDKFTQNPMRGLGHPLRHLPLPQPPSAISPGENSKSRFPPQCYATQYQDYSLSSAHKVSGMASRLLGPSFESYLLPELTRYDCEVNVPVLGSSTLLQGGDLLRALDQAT
Sequence of RAC-alpha serine/threonine-protein kinase (Homo sapiens) (P31749 whole entry): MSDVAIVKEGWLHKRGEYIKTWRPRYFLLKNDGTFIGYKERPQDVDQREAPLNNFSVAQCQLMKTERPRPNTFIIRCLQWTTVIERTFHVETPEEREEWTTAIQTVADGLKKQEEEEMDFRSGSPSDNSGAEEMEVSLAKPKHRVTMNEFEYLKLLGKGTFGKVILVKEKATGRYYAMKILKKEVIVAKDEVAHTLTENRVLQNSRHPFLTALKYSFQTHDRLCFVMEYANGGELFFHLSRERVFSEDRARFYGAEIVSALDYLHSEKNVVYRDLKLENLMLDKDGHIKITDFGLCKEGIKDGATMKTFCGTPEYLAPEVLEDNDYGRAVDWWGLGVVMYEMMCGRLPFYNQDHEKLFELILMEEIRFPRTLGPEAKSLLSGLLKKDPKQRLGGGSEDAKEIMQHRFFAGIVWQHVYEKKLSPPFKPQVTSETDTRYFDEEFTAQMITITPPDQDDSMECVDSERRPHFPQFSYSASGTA
Sequence of Tyrosine-protein kinase JAK2 (Homo sapiens) (O60674 whole entry): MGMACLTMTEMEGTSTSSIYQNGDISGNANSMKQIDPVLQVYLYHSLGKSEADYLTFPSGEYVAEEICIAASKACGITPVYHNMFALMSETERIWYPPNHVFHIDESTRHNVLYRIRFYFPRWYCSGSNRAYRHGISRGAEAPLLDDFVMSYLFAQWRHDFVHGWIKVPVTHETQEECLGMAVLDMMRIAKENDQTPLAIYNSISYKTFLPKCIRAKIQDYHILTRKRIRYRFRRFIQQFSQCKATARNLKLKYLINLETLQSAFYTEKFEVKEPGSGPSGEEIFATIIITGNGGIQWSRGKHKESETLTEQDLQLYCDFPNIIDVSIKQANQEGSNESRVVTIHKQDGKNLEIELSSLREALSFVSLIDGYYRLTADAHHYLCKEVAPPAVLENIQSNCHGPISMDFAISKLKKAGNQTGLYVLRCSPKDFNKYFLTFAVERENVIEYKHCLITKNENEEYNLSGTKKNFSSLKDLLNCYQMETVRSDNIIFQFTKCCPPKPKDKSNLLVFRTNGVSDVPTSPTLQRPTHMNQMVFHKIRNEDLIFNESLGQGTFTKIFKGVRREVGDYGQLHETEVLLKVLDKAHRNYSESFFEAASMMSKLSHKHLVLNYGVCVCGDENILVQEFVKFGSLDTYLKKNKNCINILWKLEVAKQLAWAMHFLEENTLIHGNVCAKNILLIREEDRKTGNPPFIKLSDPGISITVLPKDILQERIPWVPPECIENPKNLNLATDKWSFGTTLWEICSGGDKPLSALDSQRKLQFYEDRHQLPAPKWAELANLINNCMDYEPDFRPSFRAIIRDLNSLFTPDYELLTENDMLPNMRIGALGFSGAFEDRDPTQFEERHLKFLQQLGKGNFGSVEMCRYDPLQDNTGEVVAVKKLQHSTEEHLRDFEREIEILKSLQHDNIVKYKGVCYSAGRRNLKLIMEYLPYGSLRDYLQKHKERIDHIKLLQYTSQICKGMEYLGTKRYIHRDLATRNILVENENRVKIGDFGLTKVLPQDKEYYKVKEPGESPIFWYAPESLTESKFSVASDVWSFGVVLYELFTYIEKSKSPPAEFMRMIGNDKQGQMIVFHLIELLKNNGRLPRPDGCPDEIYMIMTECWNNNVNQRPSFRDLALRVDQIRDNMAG

CN(C)CCCN1C(=O)c2ccc3c4ccc5c6c(ccc(c7ccc(c2c37)C1=O)c64)C(=O)N(CCCN(C)C)C5=O
active: inhibition [2] | Activity [3] | inhibition [4] | Activity [7] | Activity [8] | inhibition [9] | Activity [10] | inhibition [11] | inhibition [13] | inhibition [14] | Activity [15] | inhibition [16] | Activity [17] | inhibition [19] | inhibition [20] | inhibition [21] | inhibition [22] | Activity [23] | inhibition [24] | inhibition [26]
0.06 g: Activity [6]
inactive: Activity [5] | inhibition [12] | inhibition [18] | inhibition [25] | inhibition [27]
75 mm3: Activity [1]
